Test results taken from BindingDB's records for doi:10.3109/14756366.2013.777717 (Tokushima Bunri University, 2014).

Biological target: T1, Sphingomyelinase C (Bacillus cereus, UniProt P11889)
T1 sequence (P11889 whole entry): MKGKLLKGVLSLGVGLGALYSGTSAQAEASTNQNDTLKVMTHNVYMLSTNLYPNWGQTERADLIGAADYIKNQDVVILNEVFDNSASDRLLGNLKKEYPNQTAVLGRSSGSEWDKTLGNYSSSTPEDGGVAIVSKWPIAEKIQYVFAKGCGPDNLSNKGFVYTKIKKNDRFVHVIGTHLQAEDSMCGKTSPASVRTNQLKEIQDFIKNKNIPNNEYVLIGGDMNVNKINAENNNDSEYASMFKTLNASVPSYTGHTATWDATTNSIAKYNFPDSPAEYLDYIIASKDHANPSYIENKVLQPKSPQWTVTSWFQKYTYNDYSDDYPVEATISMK
Assay: Turbidometric Assay
Settings: pH 7.5; 37 °C
Experimental: Briefly, Bc-SMase (50 ng/ml) was treated at 37 °C for 60 min with various compounds that were solubilized in dimethylacetoamide. The reaction mixture was incubated at 37 °C for 5 h with 1.0mM SM from bovine brain (Nacalai, Kyoto, Japan) that was solubilized in a solution containing 20mM Tris-HCl (pH 7.5), 1.0% sodium cholate, and 1mM MgCl2. The turbidity of the reaction mixture was analysed by absorption spectrometer at 620 nm.

SMILES	IC50 [µM]	Ki [µM]
CCCCCC(=O)N[C@@H](COCc1cccc(-c2ccccn2)n1)[C@H](O)/C=C/COc1ccc(C(=O)c2ccccc2)cc1 [SMY-469a]	> 20	–
CCCCCCOC[C@H](COCc1cccc(-c2ccccn2)n1)OCCCCCC [TOM-2-18]	> 20	–
CCCCCCCCCCCCC/C=C/[C@@H](O)[C@H](COCc1cccc(-c2ccccn2)c1)NC(=O)CCCCC [SMY-632]	> 20	–
CCCCCC(=O)N[C@@H](COCc1cccc(-c2ccccn2)n1)[C@H](O)c1ccccc1 [SMY-540]	0.8	1.3
CCCCCCCCCCCCCCC[C@@H](O)[C@H](COCc1cccc(-c2ccccn2)n1)NC(=O)CCCCC [SMY-584]	> 20	–
CCCCCCCCCCCCC/C=C/[C@@H](O)[C@@H](N)COCc1cccc(-c2ccccn2)n1 [SMY-471]	0.9	2.8
CCCCCCCCCCCCC/C=C/[C@@H](O)[C@H](COCc1cccc(-c2ccccn2)n1)NC(=O)OC(C)(C)C [SMY-579]	18.3	–
CCCCCCCCCCCCC/C=C/[C@@H](O)[C@H](COCc1cccc(-c2ccccn2)n1)NC(=O)CCCCC [RY221B-a]	1.2	5.2
CCCCCCCCCCCCCCCCOC[C@H](COCc1cccc(-c2ccccn2)n1)OCCCCCCCCCCCCCCCC [TOM-2-37]	> 20	–
CCCCCCCCCCCCC/C=C/[C@@H](Oc1cccc(-c2ccccn2)n1)[C@H](CO)NC(=O)CCCCC [RY221B-b]	> 20	–
CCCCCC(=O)OC[C@H](COCc1cccc(-c2ccccn2)n1)OC(=O)CCCCC [TOM-2-7]	> 20	–
CCCCCCCCCCCCC/C=C/[C@@H](Oc1cccc(-c2ccccn2)n1)[C@H](COCc1cccc(-c2ccccn2)n1)NC(=O)CCCCC [SMY-610]	3.3	–
